Experimental data: patent publication US9249147B2, “Tyrosine kinase inhibitors” (CHEMBRIDGE CORPORATION, priority 2008, dated 2016)
Converted amounts (≈) assume the structure as drawn. “And” between values parts separate entries of the source, which are not always exact repeats. Identical values can stand only once. Counter-ions that a name gives are not always drawn. Like-named read-outs stand apart in the source and are kept apart here.

How the values were obtained:
[1] = Plasma Protein Binding (Human), equilibrium dialysis; type: in vitro ADME; settings: 1.0E−05 M; for % Protein Bound, Mean: equilibrium dialysis; for % Protein Bound, 1st/2nd: individual data
[2] = Aqueous Solubility (PBS, pH 7.4); type: physicochemical; settings: pH 7.4, 2.0E−04 M; for solubility: pH 7.4, PBS
[3] = Partition Coefficient (Log D, n-octanol/PBS, pH 7.4); type: physicochemical; settings: 1.0E−04 M; for logD: read-out: Partition Coefficient Log D, Weighed Average of Three Replicates
PC12 cells = assay: NGF-stimulated neurite outgrowth in PC12 cells; type: cell-based; settings: 100 nM compound, NGF 100 ng/ml, 6 days
Protocol: In chronic pain states, neurons form outgrowths which sensitize them to pain. NGF-induced neurite outgrowth was used as an assay for TrkA-dependent chronic/neuropathic pain activity.
Methods: PC12 cells were grown in 2% FBS and treated with or without NGF (100 ng/ml) 30 min before adding of vehicle or TRKA compounds for 6 days, changing media on day 3. On day 6 cells were fixed and stained for SRB before photographed for neurite outgrowth.

PC-12 cells = assay: PC-12 cell cytotoxicity; type: cell-based; settings: FIG. 13
IGF1R = target: T1, IGF1R (Homo sapiens, UniProt P08069); assay: IGF1R kinase assay; type: biochemical
T1 construct: 6×His- or GST-tagged kinase domain fragments of the corresponding RTKs expressed in baculovirus system; host or cells: baculovirus system
T1 sequence (P08069 999-1274 limits assumed): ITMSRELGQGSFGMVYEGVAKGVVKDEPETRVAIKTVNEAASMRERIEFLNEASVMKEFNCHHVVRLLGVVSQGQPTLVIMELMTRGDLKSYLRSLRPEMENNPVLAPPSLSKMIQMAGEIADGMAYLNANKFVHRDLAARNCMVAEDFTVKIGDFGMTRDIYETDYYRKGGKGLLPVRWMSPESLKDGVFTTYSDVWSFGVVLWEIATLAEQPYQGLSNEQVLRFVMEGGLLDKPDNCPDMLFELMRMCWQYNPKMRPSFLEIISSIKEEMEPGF
Procedure, shortened: (§1)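 The AlphaScreen PT66 format of the NPM-ALK assay was applied with minor modifications to commercial recombinant His/GST-tagged kinase domains. Compound (0.078125–40 μM) was incubated 30 min at RT with 10 μM ATP and biotinylated poly-GT in Tris pH 7.5/MgCl2/MnCl2/DTT buffer, then beads 60 min. Read at 520–680 nm; IC50 and Ki derived.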

IRK = target: T2, IRK (Homo sapiens, UniProt P06213); assay: IRK (insulin receptor kinase) assay; type: biochemical
T2 construct: 6×His- or GST-tagged kinase domain fragments of the corresponding RTKs expressed in baculovirus system; host or cells: baculovirus system
T2 sequence (P06213 1023-1298 limits assumed): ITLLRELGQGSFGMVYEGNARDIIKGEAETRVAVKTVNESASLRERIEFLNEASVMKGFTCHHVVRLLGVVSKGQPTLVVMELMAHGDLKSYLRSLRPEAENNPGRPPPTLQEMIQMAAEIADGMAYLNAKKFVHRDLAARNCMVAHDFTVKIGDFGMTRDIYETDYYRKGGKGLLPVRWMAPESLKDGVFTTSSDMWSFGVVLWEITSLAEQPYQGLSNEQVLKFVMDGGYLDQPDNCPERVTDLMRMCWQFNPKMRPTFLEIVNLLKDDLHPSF
Procedure, shortened: as §1

TRKA = TRKA (Homo sapiens, UniProt P04629); assay: TRKA kinase assay; type: biochemical; set-up: 6×His- or GST-tagged kinase domain fragments of the corresponding RTKs expressed in baculovirus system; host or cells: baculovirus system
TRKA, sequence (P04629 510-781 limits assumed): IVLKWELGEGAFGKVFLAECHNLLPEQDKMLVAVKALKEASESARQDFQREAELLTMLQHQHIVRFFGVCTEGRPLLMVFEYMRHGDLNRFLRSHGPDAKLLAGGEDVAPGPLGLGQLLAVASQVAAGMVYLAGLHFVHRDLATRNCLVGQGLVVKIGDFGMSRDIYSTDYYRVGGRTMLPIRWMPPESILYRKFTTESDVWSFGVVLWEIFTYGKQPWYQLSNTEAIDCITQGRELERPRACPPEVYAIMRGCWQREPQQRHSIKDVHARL

ALK = ALK (Homo sapiens, UniProt Q9UM73); assay: ALK kinase assay (Kinase-Glo / AlphaScreen, purified NPM-ALK); type: biochemical; set-up: fused to the complete intracytoplasmic portion of ALK containing the functional tyrosine kinase domain; 6xHis; made in house; host or cells: insect cells; the other entry of the earlier key: NPM1 (P06748, Nucleophosmin);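 also: recombinant baculovirus-expressed ALK kinase domain, activity read either as leftover ATP by Kinase-Glo luminescence or as poly(Glu-Tyr) phosphorylation by anti-phosphotyrosine AlphaScreen proximity signal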
ALK, sequence (Q9UM73 with tags, fused parts or gaps): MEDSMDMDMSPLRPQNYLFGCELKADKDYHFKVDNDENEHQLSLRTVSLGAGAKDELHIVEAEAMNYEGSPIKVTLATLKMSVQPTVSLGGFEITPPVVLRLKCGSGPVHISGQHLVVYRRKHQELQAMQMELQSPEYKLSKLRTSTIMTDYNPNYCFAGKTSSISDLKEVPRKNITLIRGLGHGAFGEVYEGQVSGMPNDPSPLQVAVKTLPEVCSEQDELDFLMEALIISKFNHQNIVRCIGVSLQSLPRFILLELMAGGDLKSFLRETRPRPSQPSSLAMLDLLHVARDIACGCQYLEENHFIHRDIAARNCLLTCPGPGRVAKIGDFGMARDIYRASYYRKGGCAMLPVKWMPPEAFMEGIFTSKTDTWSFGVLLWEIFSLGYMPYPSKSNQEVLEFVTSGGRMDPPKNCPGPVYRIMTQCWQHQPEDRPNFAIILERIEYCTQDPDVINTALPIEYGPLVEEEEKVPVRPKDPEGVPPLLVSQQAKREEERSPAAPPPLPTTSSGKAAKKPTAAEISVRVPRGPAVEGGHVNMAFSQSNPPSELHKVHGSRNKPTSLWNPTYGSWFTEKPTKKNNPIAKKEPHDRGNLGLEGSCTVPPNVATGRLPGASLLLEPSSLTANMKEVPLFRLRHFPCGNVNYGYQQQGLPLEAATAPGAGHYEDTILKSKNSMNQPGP

Karpas299 = assay: Cell proliferation inhibition, ALCL line Karpas299; type: cell-based; settings: Homo sapiens, KARPAS-299; Table 3A; read-out: Cellular IC50 K-299
From the text: The IL-3-dependent lymphoid cell line BaF3 or BaF3 rendered IL-3-independent by engineered expression of NPM-ALK were used in parallel to test each candidate inhibitor. Control wells contained DMSO solvent without test compound. Specific inhibition of ALK signaling is indicated in the assay by impairment of NPM-ALK-expressing BaF3 cell growth without alterations in the growth of parental BaF3. This colorimetric assay of cell proliferation and viability is based upon reduction of the yellow monotetrazolium salt XTT to a water-soluble orange formazan dye, a reaction catalyzed by mitochondrial dehydrogenases in living cells only (Cell Proliferation Kit II, Cat. #1 465 015, Roche Biochemicals). In addition to testing compounds for their ability to impair the growth of BaF3 cells engineered to express NPM-ALK, the NPM-ALK-positive human lymphoma cell line Karpas-299 (Deutsche Sammlung von Mikroorganismen and Zellkulturen GmbH (DSMZ) no. ACC 31), the human BCR-ABL-positive chronic myeloid leukemia cell line K562 (American Type Culture Collection (ATCC) no. CCL-243), and the human T-cell leukemia line Jurkat (DSMZ no. ACC 282) were tested in these assays.
Each compound stock in 100% DMSO was first diluted using 8% DMSO/culture medium to produce a working stock of 250 μM compound. This working stock was then used to perform serial 1:1 dilutions (i.e., 125 μM, 62.5 μM, 31.25 μM, 15.625 μM, 7.8125 μM, and 3.90625 μM) using DMSO-free culture medium. Twenty (20) μL of each of these dilutions was then added to the cells (2×10^4 cells in 80 μL culture medium per 96-well) to obtain the final test compound concentrations (i.e., 25 μM, 12.5 μM, 6.25 μM, 3.125 μM, 1.5625 μM, and 0.78125 μM).
(§2) Cell proliferation inhibition assays were run for compound (II) with the five target NPM-ALK-dependent ALCL cell lines (Karpas 299, SuDHL-1, JB6, SupM2, UConn) and 12 unrelated cell lines (HEK293, CHO-K1, MCF7, HepG2, H292, H520, H1581, H596, H522, CHA-GO-K1, UMC-11, SK-MES1). […] The pronounced target cell-killing effect is also observed (molecular mechanisms to be determined).

U937 = assay: Cellular IC50, U937; type: cell-based; settings: Homo sapiens, U-937; Table 3A
[4] = Liver microsome stability, Human LM-P1 / HLM; type: in vitro ADME; settings: for CLint scaled: Table 3A, human liver microsomes, read-out: CL HLM; for half-life / microsomal CLint: human, liver microsomes; for microsomal CLint: read-out: Human LM-P1 CL
From the text: Metabolic stability of compound (II) (labeled as CRL241 below) in vitro has been tested in a standard in vitro microsomal stability assay in human microsomes (Cerep Study 13170).

[5] = Liver microsome stability, Mouse LM-P1 / MLM; type: in vitro ADME; settings: for CLint scaled: Table 3A, mouse liver microsomes, read-out: CL MLM; for half-life / microsomal CLint: mouse, liver microsomes; for microsomal CLint: read-out: Mouse LM-P1 CL
SUDHL-1 = assay: Cellular IC50, SUDHL-1; type: cell-based; settings: Homo sapiens, SU-DHL-1; Table 3A
From the text: as §2

[6] = Liver microsome stability, Rat LM-P1; type: in vitro ADME; settings: liver microsomes; for microsomal CLint: read-out: Rat LM-P1 CL
[7] = Caco-2, pH 6.5
[8] = Caco-2 (TC7) A-B Permeability test (pH 6.5/7.4); settings: A-B Permeability (TC7, pH 6.5/7.4), test concentration 1.0E−05 M
[9] = Tables 9C, 9D, read-out: Solubility Mean
[10] = individual data, read-out: Solubility 1st/2nd
[11] = Table 3A, read-out: Cell Free IC50 IRK
[12] = Table 3A, read-out: Cell Free IC50 TRKA
[13] = Table 8D, read-out: GTx-ALK IC50

## CCCC(=O)Nc1ccc(OCC(O)CNC(C)C)c(C(C)=O)c1 (stereo not drawn) [Acebutolol]
[1]
  % Protein Bound, Mean: 19.2%
  % Protein Bound, 1st/2nd: 21.4% and 16.9%

## CC/C(=C(/CC)c1ccc(O)cc1)c1ccc(O)cc1 [Diethylstilbestrol]
[2]; individual data
  Solubility 1st/2nd: 8.59 μm
[2]; [9]
  solubility: 8.6 µM (≈ 2.31 µg/mL)
[2]; [10]
  solubility: 8.6 µM (≈ 2.31 µg/mL)
[3]
  logD: > 5

## COCCc1ccc(OCC(O)CNC(C)C)cc1 (stereo not drawn) [Metoprolol tartrate]
[2]; individual data
  Solubility 1st/2nd: 188.93 μm
[2]; [9]
  solubility: 190 µM
[2]; [10]
  solubility: 190 µM
[3]
  logD: -0.46

## O=C1NC(=O)C(c2ccccc2)(c2ccccc2)N1 [Phenytion]
[3]
  Partition Coefficient Log D, Weighed Average of Three Replicates: 2.34

## CO[C@H]1/C=C/O[C@@]2(C)Oc3c(C)c(O)c4c(O)c(c(/C=N/N5CCN(C)CC5)c(O)c4c3C2=O)NC(=O)/C(C)=C\C=C\[C@H](C)[C@H](O)[C@@H](C)[C@@H](O)[C@@H](C)[C@H](OC(C)=O)[C@@H]1C [Rifampicin]
[2]; individual data
  Solubility 1st/2nd: 186.51 μm
[2]; [9]
  solubility: 184 µM (≈ 151 µg/mL)
[2]; [10]
  solubility: 181 µM (≈ 149 µg/mL)
[3]
  logD: 1.23

## CC(=O)CC(c1ccccc1)c1c(O)c2ccccc2oc1=O (stereo not drawn) [Warfarin]
[1]
  % Protein Bound, Mean: 99.2%
  % Protein Bound, 1st/2nd: 99.2%

## C[C@@H](Cc1cc(F)cc(F)c1F)Nc1cc[nH]c(=O)c1-c1nc2cc3c(cc2[nH]1)CN(CCN1CCCC1)C3=O [compound (VII)]
PC12 cells
  NGF-stimulated neurite outgrowth: inhibited the neurite outgrowth
PC-12 cells
  PC-12 cell cytotoxicity: lack of PC-12 cell cytotoxicity

## Cc1ccc(F)cc1C[C@H](C)Nc1cc[nH]c(=O)c1-c1nc2cc3c(cc2[nH]1)C(=O)N(CCN1CCCC1)C3 [drawing 303]
IGF1R; Table 1, read-out: IGF1R IC50
  IC50: 100 to 250 nM
IRK; Table 1, read-out: IRK IC50
  IC50: 100 to 250 nM
TRKA; Table 1, read-out: TRKA IC50
  IC50: < 10 nM
ALK; Table 1, read-out: ALK IC50
  IC50: < 10 nM

## Cc1ccc(F)cc1C[C@H](C)Nc1cc[nH]c(=O)c1-c1nc2cc3c(cc2[nH]1)CN(CCN(C)C)C3=O [drawing 316]
IGF1R; Table 1, read-out: IGF1R IC50
  IC50: 100 to 250 nM
IRK; Table 1, read-out: IRK IC50
  IC50: 100 to 250 nM
TRKA; Table 1, read-out: TRKA IC50
  IC50: < 10 nM
ALK; Table 1, read-out: ALK IC50
  IC50: < 10 nM

## Cc1ccc(F)cc1C[C@H](C)Nc1cc[nH]c(=O)c1-c1nc2cc3c(cc2[nH]1)C(=O)N(CCN1CCCC1)C3 [drawing 360]
IRK; [11]
  IC50: 254 nM
Karpas299
  IC50: 81 nM
U937
  IC50: > 3000 nM
[4]
  CLint scaled: < 5.8 mL/min/kg
[5]
  CLint scaled: 52.9 mL/min/kg
TRKA; [12]
  IC50: 2 nM
ALK; Table 3A, read-out: Cell Free IC50 ALK
  IC50: 2 nM

## Cc1ccc(F)cc1C[C@H](C)Nc1cc[nH]c(=O)c1-c1nc2cc3c(cc2[nH]1)CN(CCN(C)C)C3=O [drawing 361]
IGF1R; Table 3A, read-out: Cell Free IC50 IGF1R
  IC50: 455 nM
IRK; [11]
  IC50: 526 nM
Karpas299
  IC50: 155 nM
SUDHL-1
  IC50: 30 nM
U937
  IC50: > 3000 nM
[4]
  CLint scaled: < 5.8 mL/min/kg
[5]
  CLint scaled: 46 mL/min/kg
TRKA; [12]
  IC50: 3 nM

## Cc1ccc(F)cc1C[C@H](C)Nc1cc[nH]c(=O)c1-c1nc2cc3c(cc2[nH]1)C(=O)N(CCN1CCCC1)C3 [drawing 368]
[4]
  half-life: > 20 min
  microsomal CLint: < 5.8 µL/min/mg
[6]
  half-life: 8.71 min
  microsomal CLint: 79.6 µL/min/mg
[5]
  half-life: 13.1 min
  microsomal CLint: 52.9 µL/min/mg
ALK; [13]
  IC50: 2 nM

## C[C@@H](Cc1cc(F)cc(F)c1F)Nc1cc[nH]c(=O)c1-c1nc2cc3c(cc2[nH]1)CN(CCN1CCCC1)C3=O [drawing 369]
[4]
  half-life: > 120 min
  microsomal CLint: < 5.8 µL/min/mg
[6]
  half-life: 5 min
  microsomal CLint: 138 µL/min/mg
[5]
  half-life: 22.1 min
  microsomal CLint: 31.4 µL/min/mg
ALK; [13]
  IC50: 5 nM

## C[C@@H](Cc1c(F)c(F)cc(F)c1F)Nc1cc[nH]c(=O)c1-c1nc2cc3c(cc2[nH]1)CN(CCN1CCCC1)C3=O [drawing 370]
[4]
  half-life: > 120 min
  microsomal CLint: < 5.8 µL/min/mg
[6]
  half-life: 4.36 min
  microsomal CLint: 159 µL/min/mg
[5]
  half-life: 29 min
  microsomal CLint: 23.9 µL/min/mg
ALK; [13]
  IC50: 3 nM

## CC[C@]1(O)C[C@@H]2CN(CCc3c([nH]c4ccccc34)[C@@](C(=O)OC)(c3cc4c(cc3OC)N(C)[C@H]3[C@@](O)(C(=O)OC)[C@H](OC(C)=O)[C@]5(CC)C=CCN6CC[C@]43[C@@H]65)C2)C1 [vinblastin]
[7]
  Mean Permeability: 0.0 10^−6 cm/s
  Permeability 1st: 0.82 10^−6 cm/s
  Permeability 2nd: 0.02 10^−6 cm/s
[8]; 1st replicate
  Present Recovery 1st: 73%
[8]; 2nd replicate
  Present Recovery 2nd: 57%
[8]; mean of n = 2
  Mean Recovery: 65%
